Experimental data: patent US10597388B2, “Pyridazinone herbicides” (FMC CORPORATION, priority 2014, dated 2020)
Like-named read-outs stand apart in the source and are kept apart here.

Assays:
Assay in all cases: Test A greenhouse herbicide test, pre- and postemergence
Type in all cases: in vivo
[1] = test system: barnyardgrass (Echinochloa crus-galli); settings: Echinochloa crus-galli, 240 h; for pest or weed control at 125 g/ha: 125 g ai/ha; for pest or weed control at 500 g/ha: 500 g ai/ha, 0 to 100 scale
In short: (§1)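 Seeds sown in loam–sand blend got a preemergence directed soil spray of compound in non-phytotoxic solvent with surfactant. Postemergence treatment was given at 2–10 cm, one- to two-leaf stage. After ~10 d in greenhouse, injury was rated visually vs untreated controls, 0 (no effect) to 100 (complete control).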

corn (Zea mays) = settings: Zea mays, post-emergence, 240 h, Postemergence; for Corn plant response rating (crop injury, 0 = no effect, 100 = complete kill) at 125 g/ha: 125 g ai/ha; for plant injury at 500 g/ha: 500 g ai/ha, 0 to 100 scale, 0 is no effect, 100 is complete control, read-out: Corn plant response rating
In short: as §1

[2] = test system: foxtail, giant (giant foxtail, Setaria faberii); settings: Setaria faberi, 240 h; for pest or weed control at 125 g/ha: 125 g ai/ha; for pest or weed control at 500 g/ha: 500 g ai/ha, 0 to 100 scale
In short: as §1

kochia (Kochia scoparia) = settings: Bassia scoparia, 240 h; for pest or weed control at 125 g/ha: 125 g ai/ha; for pest or weed control at 500 g/ha: 500 g ai/ha, 0 to 100 scale
In short: as §1

[3] = test system: pigweed (Amaranthus retroflexus); settings: Amaranthus retroflexus, 240 h; for pest or weed control at 125 g/ha: 125 g ai/ha; for pest or weed control at 500 g/ha: 500 g ai/ha, 0 to 100 scale
In short: as §1

[4] = test system: ragweed (common ragweed, Ambrosia elatior); settings: Ambrosia artemisiifolia, 240 h; for pest or weed control at 125 g/ha: 125 g ai/ha; for pest or weed control at 500 g/ha: 500 g ai/ha, 0 to 100 scale
In short: as §1

[5] = test system: ryegrass, Italian (Italian ryegrass, Lolium multiflorum); settings: Lolium multiflorum, 240 h; for pest or weed control at 125 g/ha: 125 g ai/ha; for pest or weed control at 500 g/ha: 500 g ai/ha, 0 to 100 scale
In short: as §1

[6] = test system: wheat (Triticum aestivum); settings: Triticum aestivum, post-emergence, 240 h, Postemergence; for plant injury at 125 g/ha: 125 g ai/ha, read-out: Plant response rating, Wheat; for plant injury at 500 g/ha: 500 g ai/ha, 0 to 100 scale, 0 is no effect, 100 is complete control, read-out: Wheat plant response rating
In short: as §1

[7] = post-emergence, Postemergence, 0 is no effect, 100 is complete control, read-out: Barnyardgrass plant response rating
[8] = pre-emergence, Preemergence, 0 to 100 scale where 0 is no effect and 100 is complete control, read-out: Barnyardgrass plant response rating
[9] = pre-emergence, Preemergence, 0 no effect, 100 complete control, read-out: Plant response rating, Barnyardgrass
[10] = visual rating after approx. 10 d, 0 to 100 scale (0 no effect, 100 complete control)
[11] = post-emergence, Postemergence, 0 is no effect, 100 is complete control, read-out: Foxtail, Giant plant response rating
[12] = pre-emergence, Preemergence, 0 to 100 scale where 0 is no effect and 100 is complete control, read-out: Foxtail, Giant plant response rating
[13] = pre-emergence, Preemergence, 0 no effect, 100 complete control, read-out: Plant response rating, Foxtail, Giant
[14] = post-emergence, Postemergence, 0 is no effect, 100 is complete control, read-out: Kochia plant response rating
[15] = pre-emergence, Preemergence, 0 to 100 scale where 0 is no effect and 100 is complete control, read-out: Kochia plant response rating
[16] = pre-emergence, Preemergence, 0 no effect, 100 complete control, read-out: Plant response rating, Kochia
[17] = post-emergence, Postemergence, 0 is no effect, 100 is complete control, read-out: Pigweed plant response rating
[18] = pre-emergence, Preemergence, 0 to 100 scale where 0 is no effect and 100 is complete control, read-out: Pigweed plant response rating
[19] = pre-emergence, Preemergence, 0 no effect, 100 complete control, read-out: Plant response rating, Pigweed
[20] = post-emergence, Postemergence, 0 is no effect, 100 is complete control, read-out: Ragweed plant response rating
[21] = pre-emergence, Preemergence, 0 to 100 scale where 0 is no effect and 100 is complete control, read-out: Ragweed plant response rating
[22] = pre-emergence, Preemergence, 0 no effect, 100 complete control, read-out: Plant response rating, Ragweed
[23] = post-emergence, Postemergence, 0 is no effect, 100 is complete control, read-out: Ryegrass, Italian plant response rating
[24] = pre-emergence, Preemergence, 0 to 100 scale where 0 is no effect and 100 is complete control, read-out: Ryegrass, Italian plant response rating
[25] = pre-emergence, Preemergence, 0 no effect, 100 complete control, read-out: Plant response rating, Ryegrass, Italian
[26] = 0 to 100 scale where 0 is no effect and 100 is complete control

SMILES | pest or weed control at 500 g/ha [1, 7] | pest or weed control at 125 g/ha [1, 8] | pest or weed control at 500 g/ha [1, 9] | plant injury at 500 g/ha (corn (Zea mays)) | pest or weed control at 500 g/ha [2, 11] | pest or weed control at 125 g/ha [2, 12] | pest or weed control at 500 g/ha [2, 13] | pest or weed control at 500 g/ha (kochia (Kochia scoparia); [14]) | pest or weed control at 125 g/ha (kochia (Kochia scoparia); [15]) | pest or weed control at 500 g/ha (kochia (Kochia scoparia); [16]) | pest or weed control at 500 g/ha [3, 17] | pest or weed control at 125 g/ha [3, 18] | pest or weed control at 500 g/ha [3, 19] | pest or weed control at 500 g/ha [4, 20] | pest or weed control at 125 g/ha [4, 21] | pest or weed control at 500 g/ha [4, 22] | pest or weed control at 500 g/ha [5, 23] | pest or weed control at 125 g/ha [5, 24] | pest or weed control at 500 g/ha [5, 25] | plant injury at 500 g/ha [6] | further results
CCc1sc2cc(C)cc(C)c2c1-c1c(O)c(C)nn(C)c1=O [Compound 19, 4-(2-ethyl-4,6-dimethylbenzo[b]thien-3-yl)-5-hydroxy-2,6-dimethyl-3(2H)-pyridazinone] | 80% | 30% | 90% | 0% | 60% | 0% | 0% | 0% | 0% | 0% | 0% | 0% | 0% | 0% | 0% | 20% | 0% | 0% | 0% | 0% | pest or weed control at 125 g/ha ([1]; post-emergence, Postemergence, visual rating after approx. 10 d, 0 to 100 scale (0 no effect, 100 complete control), read-out: Plant response rating, Barnyardgrass): 20%; Corn plant response rating (crop injury, 0 = no effect, 100 = complete kill) at 125 g/ha (corn (Zea mays); [10]): 0%; pest or weed control at 125 g/ha ([2]; post-emergence, Postemergence, visual rating after approx. 10 d, 0 to 100 scale (0 no effect, 100 complete control), read-out: Plant response rating, Foxtail, Giant): 20%; pest or weed control at 125 g/ha (kochia (Kochia scoparia); post-emergence, Postemergence, visual rating after approx. 10 d, 0 to 100 scale (0 no effect, 100 complete control), read-out: Plant response rating, Kochia): 0%; pest or weed control at 125 g/ha ([3]; post-emergence, Postemergence, visual rating after approx. 10 d, 0 to 100 scale (0 no effect, 100 complete control), read-out: Plant response rating, Pigweed): 0%; pest or weed control at 125 g/ha ([4]; post-emergence, Postemergence, visual rating after approx. 10 d, 0 to 100 scale (0 no effect, 100 complete control), read-out: Plant response rating, Ragweed): 0%; pest or weed control at 125 g/ha ([5]; post-emergence, Postemergence, visual rating after approx. 10 d, 0 to 100 scale (0 no effect, 100 complete control), read-out: Plant response rating, Ryegrass, Italian): 0%; plant injury at 125 g/ha [6, 10]: 0%
COc1nn(C)c(=O)c(-c2c(C)c(C)cc3ccccc23)c1O [Compound 46, 4-(2,3-dimethyl-1-naphthalenyl)-5-hydroxy-6-methoxy-2-methyl-3(2H)-pyridazinone] | 80% | 20% | 60% | 0% | 80% | 50% | 90% | 40% | 30% | 30% | 90% | 30% | 100% | 90% | 50% | 80% | 80% | 30% | 50% | 20% | pest or weed control at 125 g/ha ([1]; post-emergence, Postemergence, 0 to 100 scale where 0 is no effect and 100 is complete control, read-out: Plant response rating, Barnyardgrass): 20%; Corn plant response rating (crop injury, 0 = no effect, 100 = complete kill) at 125 g/ha (corn (Zea mays); [26]): 0%; pest or weed control at 125 g/ha ([2]; post-emergence, Postemergence, 0 to 100 scale where 0 is no effect and 100 is complete control, read-out: Plant response rating, Foxtail, Giant): 50%; pest or weed control at 125 g/ha (kochia (Kochia scoparia); post-emergence, Postemergence, 0 to 100 scale where 0 is no effect and 100 is complete control, read-out: Plant response rating, Kochia): 30%; pest or weed control at 125 g/ha ([3]; post-emergence, Postemergence, 0 to 100 scale where 0 is no effect and 100 is complete control, read-out: Plant response rating, Pigweed): 70%; pest or weed control at 125 g/ha ([4]; post-emergence, Postemergence, 0 to 100 scale where 0 is no effect and 100 is complete control, read-out: Plant response rating, Ragweed): 80%; pest or weed control at 125 g/ha ([5]; post-emergence, Postemergence, 0 to 100 scale where 0 is no effect and 100 is complete control, read-out: Plant response rating, Ryegrass, Italian): 30%; plant injury at 125 g/ha [6, 26]: 0%
